According to patent US20170209605A1, “CARBOHYDRATE FUNCTIONALIZED CATANIONIC SURFACTANT VESICLES FOR DRUG DELIVERY” (University of Maryland, College Park, priority 2007, published 2017):

Experiment: Incorporation of glycoconjugate into SDBS-rich vesicles (SEC, colorimetric detection)
Type: physicochemical
Details: SDBS/CTAT vesicles, twelve carbon tail
Description: In an experiment, glycoconjugates consisting of eight carbon tails were used. In all SDBS-rich vesicle test cases 18-25% of the conjugate eluted with the vesicle fractions. At the incorporation levels summarized in Table 1, the ratio of carbohydrate conjugate to surfactant is approximately 1:100. […] In another experiment, a glucose glycoconjugate with a twelve carbon tail, n-dodecyl-β-D-glucopyranoside (C12-glucose), was used. […] The method for preparing these vesicles is now described. Vesicles were prepared with the surfactants […], and C12-glu. […] Total surfactant concentration was kept constant at 27 mM. The mole ratio of SDBS to CTAT was 3:1 in all cases (70:30 w/w). For vesicle samples containing different mole fractions of C12-glu, the amount of SDBS and CTAT was adjusted accordingly to keep the stated ratio of ionic surfactants constant. […] Samples were then passed through a 0.45 μm syringe filter to remove impurity particles such as dust.

CCCCCCCCCCCCO[C@@H]1O[C@H](CO)[C@@H](O)[C@H](O)[C@H]1O [C12-glucose, n-dodecyl-β-D-glucopyranoside]
share of the vesicle bilayer that can be composed of the glycoconjugate: up to 40 mole percent
